Reference: patent US20210106703A1, “RADIOIMMUNOCONJUGATES IN COMBINATION WITH OTHER DRUGS AS TREATMENT AGAINST NHL” (Nordic Nanovector ASA, priority 2017, published 2021)
Entries after “also recorded” stand apart in the source; their conditions may differ.

Legend:
Type in all cases: cell-based, human
U-2932 cells [1] = test: Real Time Glo viability screen and validation, Betalutin with PARP or cell cycle kinase inhibitors (Examples 4, 7); conditions: for BLISS analysis, combination with Betalutin versus expected additive effect: U-2932, significant = more than twice the SD of Betalutin alone
Method: (§1) DLBCL cell lines U2932 and RIVA were maintained in RPMI 1640-GlutaMAX medium (Gibco) supplemented with 15% fetal bovine serum (Biowest) and 1% penicillin-streptomycin (Gibco) at 37° C. in a humidified atmosphere containing 5% CO2. Cells were split twice a week 1:7 and diluted 2-4 days before start of the experiment, to ensure they are in exponential growth at the beginning of the experiment.
(§2) Cells were treated in 6-well plates without shaking for 18 h with Betalutin at a final concentration of 1 μg/ml for U2932 and 0.5 μg/ml for RIVA. After treatment, PBS was added to the cells, and the cells pelleted. Cells were first resuspended in 1 ml PBS, then washed twice in PBS and finally diluted in growth medium to a final concentration of 2.5*10^6 cells/ml.
(§3) Cells density measurements were performed the day before seeding. Based on these measurements cells were seeded in 384-well plates at a density of 3000 cells per well in a culturing volume of 25 μl (resulting in start titers: 120 000 cells/ml) using a robot. For measuring viability using Real Time Glo (Promega, WI, USA), the Cell Viability Substrate and NanoLuc® Enzyme were diluted 1:500 in growth medium, and 25 μL of diluted reagents dispensed in each well by a robot. All reagents were equilibrated to 37° C. Cells were incubated with the reaction mix for 1 h at 37° C. before the first measurement of luminescence. Measurements were repeated as often as required within 72 h after adding the reagents. A Tecan SPARK 10M plate reader (Tecan, SUI) was used to measure luminescence, with the integration time set to 1 sec.
(§4) The screen was performed in 384-well plate with selected PARP inhibitors (stock solutions 10 mM in DMSO) acquired from SelleckChem (Selleckchem, TX, USA). To include no-drug controls, the drug panel (Table 6) was divided on two plates. Due to previous observations of cells growing poorly in wells located at the edges of the plates, the two outer most rows and columns were not used. As previously mentioned three different drug concentrations were used in the screen, 10 nM and 1 μM for U2932 and 10 and 100 nM for RIVA.
(§5) Candidate hits were identified using the Bliss Independence test for synergy. The effect of each drug alone at each concentration was calculated as the fraction of dead cells as compared to control cells Fa=(1−(RLUdrug/avgRLUcontrol), a similar calculation was performed for the effect of Betalutin alone Fb=(1−(avgRLUBetalutin/avgRLUcontrol). Through the following equation we found the expected additive effect of the combination of drug+Betalutin: Expected effect (E)Fab=(Fa+Fb−Fa*Fb). We subtracted this expected effect from the measured effect (M)Fab=(1−(RLUDrug+Betalutin/avgRLUcontrol) to get a value (Diff)Fab representing how the measured effect differed from the expected additive effect of the combination. This value was normalized to the survival fraction of drug alone: (Diff)Fab#=(Diff)Fab/(1−Fa). Furthermore, to get a measure of how big the well-to-well variation was, we calculated the standard deviation for the effect of Betalutin alone in the 48 control wells on each plate: (STDEV)Fb=(RLUBetalutin/RLUcontrol)−(averageRLUBetalutin/averageRLUcontrol). Drugs with a value (Diff)Fab#two times higher than the standard deviation of Betalutin treated controls, (STDEV)Fb, were scored as hits.
as §3, with “Measurements were repeated as often as required within 72 h after adding the reagents. A Tecan SPARK 10M plate reader (Tecan, SUI) was used to measure luminescence, with the integration time set to 1 sec.” left out

RIVA cells = test: Real Time Glo viability screen, Betalutin with PARP or cell cycle kinase inhibitors (Examples 4, 7); conditions: for BLISS analysis, combination with Betalutin versus expected additive effect: significant = more than twice the SD of Betalutin alone
Method: as §1, §2, §3, §4, §5
as §3, with “Measurements were repeated as often as required within 72 h after adding the reagents. A Tecan SPARK 10M plate reader (Tecan, SUI) was used to measure luminescence, with the integration time set to 1 sec.” left out

U-2932 cells [2] = test: Real Time Glo viability screen and validation, Betalutin with PARP or cell cycle kinase inhibitors (Examples 4, 7); conditions: for Effect of monotreatment on proliferation: U-2932, validation screen, 0-1280 nM
DOHH2 cells [3] = test: Apoptosis induction (Annexin V/7-AAD, Muse flow cytometer); conditions: DOHH2, 6 MBq/mL radiolabelled mAb for 18 h, peak time 72 h
Method: (§6) Cells were harvested at 0, 2 h, 18 h, 1 d, 2 d, 3 d of RIT. At each time point, apoptosis was detected with […] from Merck Millipore (Annexin V Kit with 7-AAD) in the dark for 30 min at room temperature before analysis using Muse® flow cytometer

Ramos cells [4] = test: as above; conditions: 6 MBq/mL radiolabelled mAb for 18 h, peak time 72 h
Method: as §6

Rec-1 cells [5] = test: as above; conditions: Rec-1, 6 MBq/mL radiolabelled mAb for 18 h, peak time 72 h
Method: as §6

DOHH2 cells [6] = test: Cell cycle analysis (PI, Muse flow cytometer); conditions: DOHH2, 6 MBq/mL, at 24 h
Method: (§7) Cells were harvested at day 0, 2 h, 18 h, 1 d, 2 d, 3 d, of RIT then fixed in 70% ethanol at −20° C. for 3 hours and stained with Cell Cycle kit (with PI) reagent from Merck Millipore in the dark for 30 min at room temperature before analysis using a Muse® flow cytometer. The percentage of cells in G0/G1, S and G2/M phases was then calculated (mean of three experiments in triplicate).
(§8) At different times after start of incubation, proteins were extracted to measure the CDK1 phosphorylation levels, in parallel, proliferation was determined and at 18 h and 24 h after start of incubation, the percentage of cells in G2/M was assessed (experiments were performed three time except the cell cycle analysis).
(§9) Cells were harvested at 0 h, 2 h, 18 h, 1 d, 2 d, 3 d, and fixed in 70% ethanol at −20° C. for at least 3 h. After staining with the Muse® Cell Cycle Assay Kit (Merck Millipore, Molsheim, France) using propidium iodide in the dark at room temperature for 30 min, cell cycle distribution was analyzed using a Muse® flow cytometer. The percentage of cells in the G0/G1, S and G2/M was calculated (mean of three experiments in triplicate) and the effect of WEE-1 and MYT-1 kinase inhibitors on the cell cycle was assessed.

Ramos cells [7] = test: Cell cycle analysis (PI, Muse flow cytometer); conditions: 6 MBq/mL, at 24 h
Method: as §7, §8, §9

Rec-1 cells [8] = test: Cell cycle analysis (PI, Muse flow cytometer); conditions: Rec-1, 6 MBq/mL, at 24 h
Method: as §7, §8, §9

[9] = system: CD133 and CD44 at the DOHH2 cell surface; test: Expression of stem cell markers after RIT (flow cytometry); conditions: DOHH2, 6 MBq/mL for 18 h, up to 9 days post-RIT
Method: Cells were harvested at 0, 2 h, 18 h and each day from 1 d to 10 d of RIT. At each time point, cells were fixed with PFA 4% for 10 minutes, washed twice with PBS and sterilely stored in PBS at 4° C. Stem cell markers were detected with anti-CD133-FITC (clone: AC133, Milteniy) and anti-CD44-APC (clone: IM7, Merck Millipore). 0.5×10^6 cells were saturated for 1 h in PBS-BSA 0.5%. Next cells were centrifuged and incubated with anti-CD133-FITC (2 μL) and anti-CD44-APC (0.125 μg) for 1 h at room temperature in the dark. Finally, cells were rinsed twice and analysed using Gallios® flow cytometer (Beckman Coulter).
For a preliminary study, investigation of the expression of CD133 and CD44 at the surface of cells treated for 18 h with 6 MBq/mL ^177Lu-lilotomab and ^177Lu-rituximab was done.

[10] = U-2932, drug 1 μM + Betalutin 1 μg/ml
[11] = RIVA, drug 100 nM + Betalutin 0.5 μg/ml

Row | Compound | Growth inhibitory effect, drug alone (U-2932 cells [1]; U-2932, drug 10 nM) | BLISS analysis, combination with Betalutin versus expected additive effect (U-2932 cells [1]) | Growth inhibitory effect, drug alone (RIVA cells; RIVA, drug 10 nM) | BLISS analysis, combination with Betalutin versus expected additive effect (RIVA cells; RIVA) | Effect of monotreatment on proliferation (U-2932 cells [2]) | Growth inhibitory effect, drug combined with Betalutin (U-2932 cells [1]; [10]) | Growth inhibitory effect, drug combined with Betalutin (RIVA cells; [11]) | also measured
1 | C[C@@H](Oc1cc(-n2cnc3ccc(CN4CCN(C)CC4)cc32)sc1C(N)=O)c1ccccc1C(F)(F)F [GSK461364] | less potency than BI2536 | significantly greater than the expected additive effect | less potency than BI2536 | significantly greater than the expected additive effect | blocked proliferation almost completely at concentrations above 40 nM |  |  | 
2 | CNCc1ccc(-c2[nH]c3cc(F)cc4c3c2CCNC4=O)cc1 [Rucaparib] |  | larger than the expected additive effect |  | larger than the expected additive effect |  | potentiated the proliferation inhibitory effect of Betalutin; also recorded: stronger growth inhibition than Betalutin alone | potentiated the proliferation inhibitory effect of Betalutin; also recorded: stronger growth inhibition than Betalutin alone | Growth inhibitory effect, drug alone (U-2932 cells [1]; U-2932, all tested concentrations (10 nM, 1 μM)): no growth inhibitory effect; Growth inhibitory effect, drug alone (RIVA cells; RIVA, all tested concentrations (10, 100 nM)): no growth inhibitory effect
3 | CN(C)Cc1ccc(-c2nc3cccc4c3n2CCNC4=O)cc1 [AG-14361] | only a minor inhibitory effect; also recorded: no growth inhibitory effect | strongest combinatory effect | only a minor inhibitory effect; also recorded: no growth inhibitory effect | strongest combinatory effect |  | potentiated the proliferation inhibitory effect of Betalutin; also recorded: stronger growth inhibition than AG-14361 alone | potentiated the proliferation inhibitory effect of Betalutin; also recorded: stronger growth inhibition than AG-14361 alone | Growth inhibitory effect, drug combined with Betalutin (U-2932 cells [1]; U-2932, drug 10 nM + Betalutin 1 μg/ml): did not enhance the growth inhibitory effect of Betalutin; Growth inhibitory effect, drug alone (U-2932 cells [1]; U-2932, drug 1 μM): inhibited proliferation; Growth inhibitory effect, drug combined with Betalutin (RIVA cells; RIVA, drug 10 nM + Betalutin 0.5 μg/ml): did not enhance the growth inhibitory effect of Betalutin; Growth inhibitory effect, drug alone (RIVA cells; RIVA, drug 100 nM): inhibited proliferation
4 | COc1cc(Nc2ncc3c(n2)-c2ccc(Cl)cc2C(c2c(F)cccc2OC)=NC3)ccc1C(=O)O [MLN8237] | insufficient to inhibit proliferation |  | insufficient to inhibit proliferation | significantly greater effect than the expected additive effect | impaired proliferation at concentrations up to 160 nM | enhanced | enhanced | inhibition at 1 µM (U-2932 cells [1]; Homo sapiens, U2932, 144 h, U-2932, drug 1 μM, day 6, read-out: Growth inhibition, drug alone): ~40%; inhibition at 0.1 µM (RIVA cells; Homo sapiens, 144 h, RIVA, drug 100 nM, day 6, read-out: Growth inhibition, drug alone): ~60%
5 | ^177Lu-rituximab |  |  |  |  |  |  |  | Apoptosis level (DOHH2 cells [3]): 97±3%; Apoptosis level (Ramos cells [4]): 56±12%; Apoptosis level (Rec-1 cells [5]): 79±16%; Proportion of cells showing a G2/M cell cycle arrest (DOHH2 cells [6]): 38±2%; Proportion of cells showing a G2/M cell cycle arrest (Ramos cells [7]): 56±13%; Proportion of cells showing a G2/M cell cycle arrest (Rec-1 cells [8]): 40±11%; Proportion of cells expressing CD44 and CD133 [9]: strongly increased
6 | CC[C@@H]1C(=O)N(C)c2cnc(Nc3ccc(C(=O)NC4CCN(C)CC4)cc3OC)nc2N1C1CCCC1 [BI2536] |  | significance was only reached in U-2932 cells |  | significance was only reached in U-2932 cells | blocked proliferation almost completely at concentrations above 40 nM |  |  | inhibition at 0.01 µM (U-2932 cells [1]; Homo sapiens, U2932, read-out: Inhibition of proliferation, drug alone): > 80%; inhibition at 0.01 µM (RIVA cells; Homo sapiens, read-out: Inhibition of proliferation, drug alone): > 80%; Drug concentration at which synergism with Betalutin is evident (CI, Chou-Talalay) (U-2932 cells [2]; U-2932, Betalutin 0.5, 1 or 2 μg/ml, day 5): 40 nM
